60 compounds from patent US20240368113A1, “AMIDE COMPOUND AND USE THEREOF” (Chengdu Fendi Pharmaceutical Co. Ltd., priority 2021, published 2024) can be followed below.

Each structure is given as a SMILES string.

For one test, the system named is MV-4-11 cells. Briefly: Inhibition of tumor cell proliferation (CellTiter-Glo). Type of test: cell-based. The note with it: Homo sapiens, MV4-11, 72 h, read-out: IC50 of inhibitory activity of tumor cell proliferation. As to the method: MV-4-11 cells were diluted with medium (RPM1640+10% FBS+1% PS) and plated at 4000 cells/well in a white-walled clear-bottom 96-well plate. MV-4-11 cells were plated and incubated in a 5% CO2, 37° C. incubator for 2 hours. Cells were treated with the indicated concentration of compound or DMSO (control), and placed in a 5% CO2, 37° C. incubator for 72 h after dosing. After the end of the culture, equilibrate at room temperature for 30 min, add 100 μl of CellTiter-Glo® Reagent to each well, and shake the microplate shaker for 2 min. After 10 min of incubation at room temperature, the luminescence was measured by a microplate reader, and the cell-free wells were used as the background wells. CC-90009 (celegen patent phase I) was used as a control, and its structural formula was as follows: 0
Consider `O=C(C#Cc1ccc(OC(=O)N2CCC(N3CCCCC3)CC2)cc1)NCc1ccc2c(c1)CN(C1CCC(=O)NC1=O)C2=O` (stereo not drawn) [Compound 72], for which the IC50 was above 100 nM.
Still for that read-out and setting: the result for `O=C(C#Cc1ccccc1OC(=O)N1CCC(N2CCCCC2)CC1)NCc1ccc2c(c1)CN(C1CCC(=O)NC1=O)C2=O` (stereo not drawn) [Compound 74] reads above 100 nM; that for `COP(=O)(OC)Oc1ccc(C#CC(=O)NCc2ccc3c(c2)CN(C2CCC(=O)NC2=O)C3=O)cc1` (stereo not drawn) [Compound 80], 10 to 100 nM; that for `O=C(C#Cc1ccc(OP(=O)(Oc2ccccc2)Oc2ccccc2)cc1)NCc1ccc2c(c1)CN(C1CCC(=O)NC1=O)C2=O` (stereo not drawn) [Compound 81], below 1 nM.
As for `CC1(C)COP(=O)(Oc2ccc(C#CC(=O)NCc3ccc4c(c3)CN(C3CCC(=O)NC3=O)C4=O)cc2)OC1` (stereo not drawn) [Compound 82], the IC50 lay within 10 to 100 nM.
Consider `CC1(C)COP(=O)(Oc2ccccc2C#CC(=O)NCc2ccc3c(c2)CN(C2CCC(=O)NC2=O)C3=O)OC1` (stereo not drawn) [Compound 97], for which the IC50 lay within 1 to 10 nM.

The same test, now with this note: Homo sapiens, MV4-11; MV-4-11 cells, 72 h, CellTiter-Glo; read-out: IC50 of inhibitory activity of tumor cell proliferation.
On to `CC(C)C(=O)Oc1ccccc1C#CC(=O)NCc1ccc2c(c1)CN(C1CCC(=O)NC1=O)C2=O` (stereo not drawn) [Compound 73], for which the IC50 fell in the range of 1 to 10 nM.
On the same count and under the same terms, the value for `O=C(C#Cc1ccccc1C(=O)O)NCc1ccc2c(c1)CN(C1CCC(=O)NC1=O)C2=O` (stereo not drawn) [Compound 75] was above 100 nM; that for `O=C(C#Cc1cccc(C(=O)O)c1)NCc1ccc2c(c1)CN(C1CCC(=O)NC1=O)C2=O` (stereo not drawn) [Compound 76] was above 100 nM.
On the same count and under the same terms, the value for `CC(C)(C)C(=O)OCOC(=O)c1ccccc1C#CC(=O)NCc1ccc2c(c1)CN(C1CCC(=O)NC1=O)C2=O` (stereo not drawn) [Compound 77] was above 100 nM; that for `CC(C)(C)C(=O)OCOC(=O)c1cccc(C#CC(=O)NCc2ccc3c(c2)CN(C2CCC(=O)NC2=O)C3=O)c1` (stereo not drawn) [Compound 78] was above 100 nM; that for `O=C(C#Cc1cc(O)ccc1Cl)NCc1ccc2c(c1)CN(C1CCC(=O)NC1=O)C2=O` (stereo not drawn) [Compound 79] was 1 to 10 nM.
On the same count and under the same terms, the value for `Nc1cccc(C#CC(=O)NCc2ccc3c(c2)CN(C2CCC(=O)NC2=O)C3=O)c1` (stereo not drawn) [Compound 84] was 1 to 10 nM; that for `O=C(C#CC1CCCCN1C(=O)C(F)(F)F)NCc1ccc2c(c1)CN(C1CCC(=O)NC1=O)C2=O` (stereo not drawn) [Compound 85] was 10 to 100 nM; that for `O=C(O)CCC(=O)Oc1ccc(C#CC(=O)NCc2ccc3c(c2)CN(C2CCC(=O)NC2=O)C3=O)cc1` (stereo not drawn) [Compound 86] was 10 to 100 nM.
As for `CC(C)(C)OC(=O)CCC(=O)Oc1ccc(C#CC(=O)NCc2ccc3c(c2)CN(C2CCC(=O)NC2=O)C3=O)cc1` (stereo not drawn) [Compound 87], the IC50 was 10 to 100 nM.
Consider `O=C(O)CCC(=O)Oc1ccccc1C#CC(=O)NCc1ccc2c(c1)CN(C1CCC(=O)NC1=O)C2=O` (stereo not drawn) [Compound 88], for which the IC50 was in the range of 1 to 10 nM.
The same measure, in the same setting: the result for `CC(C)(C)OC(=O)CCC(=O)Oc1ccccc1C#CC(=O)NCc1ccc2c(c1)CN(C1CCC(=O)NC1=O)C2=O` (stereo not drawn) [Compound 89] reads 1 to 10 nM.
With `O=C(C#Cc1ccc(Cl)cc1C(=O)O)NCc1ccc2c(c1)CN(C1CCC(=O)NC1=O)C2=O` (stereo not drawn) [Compound 90], the IC50 was above 100 nM.
For `O=C(C#Cc1cc(C(=O)O)c(F)cc1F)NCc1ccc2c(c1)CN(C1CCC(=O)NC1=O)C2=O` (stereo not drawn) [Compound 91], the IC50 fell in the range of 1 to 10 nM.
Turning to `Cc1c(C#CC(=O)NCc2ccc3c(c2)CN(C2CCC(=O)NC2=O)C3=O)cccc1C(=O)O` (stereo not drawn) [Compound 92], the IC50 is above 100 nM.
The same measure, in the same setting: the value for `CCCC(=O)OCOC(=O)c1ccccc1C#CC(=O)NCc1ccc2c(c1)CN(C1CCC(=O)NC1=O)C2=O` (stereo not drawn) [Compound 94] was above 100 nM; that for `CCCC(=O)OCOC(=O)c1cccc(C#CC(=O)NCc2ccc3c(c2)CN(C2CCC(=O)NC2=O)C3=O)c1` (stereo not drawn) [Compound 95] was above 100 nM.
As to `CC(=O)OCOC(=O)c1ccccc1C#CC(=O)NCc1ccc2c(c1)CN(C1CCC(=O)NC1=O)C2=O` (stereo not drawn) [Compound 96], the IC50 was above 100 nM.
In the case of `O=C(C#Cc1cc2ccccc2o1)NCc1ccc2c(c1)CN(C1CCC(=O)NC1=O)C2=O` (stereo not drawn) [Compound 98], the IC50 is 1 to 10 nM.
`O=C(C#Cc1coc2ccccc12)NCc1ccc2c(c1)CN(C1CCC(=O)NC1=O)C2=O` (stereo not drawn) [Compound 99]: the IC50 is below 1 nM.
Regarding `O=C(C#Cc1cc(Cl)c(O)c(Cl)c1)NCc1ccc2c(c1)CN(C1CCC(=O)NC1=O)C2=O` (stereo not drawn) [Compound 100], the IC50 is above 100 nM.
As for `O=C(C#Cc1ccc(O)c(Cl)c1)NCc1ccc2c(c1)CN(C1CCC(=O)NC1=O)C2=O` (stereo not drawn) [Compound 101], the IC50 lay in the range of 10 to 100 nM.
Same read-out and setting: the result for `O=C(C#Cc1ccc2occc2c1)NCc1ccc2c(c1)CN(C1CCC(=O)NC1=O)C2=O` (stereo not drawn) [Compound 102] reads below 1 nM.
On to `O=C(C#Cc1ccc(C(=O)O)cc1Cl)NCc1ccc2c(c1)CN(C1CCC(=O)NC1=O)C2=O` (stereo not drawn) [Compound 103], for which the IC50 is 10 to 100 nM.
On the same count and under the same terms, the value for `O=C(C#Cc1ccc(Cl)c(C(=O)O)c1)NCc1ccc2c(c1)CN(C1CCC(=O)NC1=O)C2=O` (stereo not drawn) [Compound 104] was below 1 nM; that for `Cc1cc(O)cc(C)c1C#CC(=O)NCc1ccc2c(c1)CN(C1CCC(=O)NC1=O)C2=O` (stereo not drawn) [Compound 105] was 1 to 10 nM.
Still for that read-out and setting: the value for `O=C(C#Cc1nc2ccccc2s1)NCc1ccc2c(c1)CN(C1CCC(=O)NC1=O)C2=O` (stereo not drawn) [Compound 106] was 10 to 100 nM.
On the same count and under the same terms, the result for `O=C(C#Cc1ccc2[nH]ncc2c1)NCc1ccc2c(c1)CN(C1CCC(=O)NC1=O)C2=O` (stereo not drawn) [Compound 107] reads 10 to 100 nM.
Take `O=C(C#Cc1ccc2[nH]ccc2c1)NCc1ccc2c(c1)CN(C1CCC(=O)NC1=O)C2=O` (stereo not drawn) [Compound 108]: the IC50 was in the range of 1 to 10 nM.
With `O=C(C#Cc1ccc(O)cc1Cl)NCc1ccc2c(c1)CN(C1CCC(=O)NC1=O)C2=O` (stereo not drawn) [Compound 109], the IC50 lay within 1 to 10 nM.
The same measure, in the same setting: the result for `O=C(C#Cc1cc2ccccc2[nH]1)NCc1ccc2c(c1)CN(C1CCC(=O)NC1=O)C2=O` (stereo not drawn) [Compound 110] reads 1 to 10 nM; that for `O=C(C#CC1CCCC1)NCc1ccc2c(c1)CN(C1CCC(=O)NC1=O)C2=O` (stereo not drawn) [Compound 111], 1 to 10 nM.
Still for that read-out and setting: the result for `Cc1cc(O)ccc1C#CC(=O)NCc1ccc2c(c1)CN(C1CCC(=O)NC1=O)C2=O` (stereo not drawn) [Compound 112] reads 1 to 10 nM; that for `Cc1cccc(C#CC(=O)NCc2ccc3c(c2)CN(C2CCC(=O)NC2=O)C3=O)c1O` (stereo not drawn) [Compound 113], below 1 nM; that for `Cc1c(O)cccc1C#CC(=O)NCc1ccc2c(c1)CN(C1CCC(=O)NC1=O)C2=O` (stereo not drawn) [Compound 114], 1 to 10 nM.
For the compound `O=C(C#CC(O)c1ccccc1)NCc1ccc2c(c1)CN(C1CCC(=O)NC1=O)C2=O` (stereo not drawn) [Compound 115], the IC50 was above 100 nM.
On the same count and under the same terms, the result for `CC(=O)c1ccccc1C#CC(=O)NCc1ccc2c(c1)CN(C1CCC(=O)NC1=O)C2=O` (stereo not drawn) [Compound 116] reads 1 to 10 nM; that for `CC(=O)c1cccc(C#CC(=O)NCc2ccc3c(c2)CN(C2CCC(=O)NC2=O)C3=O)c1` (stereo not drawn) [Compound 117], below 1 nM.
Regarding `CC(=O)c1ccc(C#CC(=O)NCc2ccc3c(c2)CN(C2CCC(=O)NC2=O)C3=O)cc1` (stereo not drawn) [Compound 118], the IC50 fell in the range of 1 to 10 nM.
The same measure, in the same setting: the result for `CC1=C(C(=O)NCc2ccc3c(c2)CN(C2CCC(=O)NC2=O)C3=O)C(=O)c2ccccc21` (stereo not drawn) [Compound 119] reads above 100 nM.
Turning to `O=C(C#Cc1ccc2ncsc2c1)NCc1ccc2c(c1)CN(C1CCC(=O)NC1=O)C2=O` (stereo not drawn) [Compound 120], the IC50 was in the range of 1 to 10 nM.
Same read-out and setting: the result for `O=C(C#Cc1ccc2scnc2c1)NCc1ccc2c(c1)CN(C1CCC(=O)NC1=O)C2=O` (stereo not drawn) [Compound 121] reads below 1 nM; that for `O=C(C#Cc1ccc2ncoc2c1)NCc1ccc2c(c1)CN(C1CCC(=O)NC1=O)C2=O` (stereo not drawn) [Compound 122], 10 to 100 nM; that for `O=C(C#Cc1ccc2ocnc2c1)NCc1ccc2c(c1)CN(C1CCC(=O)NC1=O)C2=O` (stereo not drawn) [Compound 123], below 1 nM.
For the compound `Nc1ccc(C#CC(=O)NCc2ccc3c(c2)CN(C2CCC(=O)NC2=O)C3=O)cc1` (stereo not drawn) [Compound 124], the IC50 fell in the range of 10 to 100 nM.
For `O=C(C#CCN1CCCC1)NCc1ccc2c(c1)CN(C1CCC(=O)NC1=O)C2=O` (stereo not drawn) [Compound 125], the IC50 is above 100 nM.
For `O=C(C#CN1CCCC1)NCc1ccc2c(c1)CN(C1CCC(=O)NC1=O)C2=O` (stereo not drawn) [Compound 126], the IC50 is above 100 nM.
Still for that read-out and setting: the value for `O=C(C#Cc1ccc2ncncc2c1)NCc1ccc2c(c1)CN(C1CCC(=O)NC1=O)C2=O` (stereo not drawn) [Compound 127] was above 100 nM; that for `O=C(C#Cc1ccc2nc[nH]c(=O)c2c1)NCc1ccc2c(c1)CN(C1CCC(=O)NC1=O)C2=O` (stereo not drawn) [Compound 128] was 10 to 100 nM.
In the case of `O=C(C#Cc1cc2cn[nH]c2cc1F)NCc1ccc2c(c1)CN(C1CCC(=O)NC1=O)C2=O` (stereo not drawn) [Compound 129], the IC50 is 10 to 100 nM.
As for `O=C(C#Cc1ccc2[nH]ncc2c1F)NCc1ccc2c(c1)CN(C1CCC(=O)NC1=O)C2=O` (stereo not drawn) [Compound 130], the IC50 was in the range of 1 to 10 nM.
The same measure, in the same setting: the result for `Cn1cnc2cc(C#CC(=O)NCc3ccc4c(c3)CN(C3CCC(=O)NC3=O)C4=O)ccc21` (stereo not drawn) [Compound 131] reads 1 to 10 nM; that for `Cn1cnc2ccc(C#CC(=O)NCc3ccc4c(c3)CN(C3CCC(=O)NC3=O)C4=O)cc21` (stereo not drawn) [Compound 132], 10 to 100 nM.
On the same count and under the same terms, the result for `Cn1cnc2c(C#CC(=O)NCc3ccc4c(c3)CN(C3CCC(=O)NC3=O)C4=O)cccc21` (stereo not drawn) [Compound 133] reads 1 to 10 nM.
